The values below come from BindingDB's records for doi:10.1016/j.ejmech.2012.12.014 (Universitat De Barcelona, 2013).

The target in experiment [1] is T1, Glycogen synthase kinase-3 beta (Homo sapiens, UniProt P49841). Put plainly: (§1) Inhibition of human recombinant GSK-3beta using GS2 peptide as substrate and [gamma33P]-ATP after 30 mins by scintillation counting.
For experiment [2], the target named is T1, Glycogen synthase kinase-3 beta. Described as §1. The source holds these as a separate data set.
In experiment [3] the target is T2, Cyclin-dependent kinase 1 (Homo sapiens, UniProt P06493). Put plainly: (§2) Inhibition of human recombinant CDK1 using histone H1 as substrate and [gamma33P]-ATP after 15 mins by scintillation counting.
Experiment [4] has as its target T3, Cyclin-dependent kinase 5 (Homo sapiens, UniProt Q00535). Put plainly: (§3) Inhibition of human recombinant CDK5 using histone H1 as substrate and [gamma33P]-ATP after 20 mins by scintillation counting.
Experiment [5] has as its target T2, Cyclin-dependent kinase 1. The experiment is described as §2. This is another data set of the same source.
Experiment [6] deals with T4, Glycogen synthase kinase-3 alpha (Homo sapiens, UniProt P49840). Put plainly: (§4) Inhibition of human recombinant GSK-3alpha using GS2 peptide as substrate and [gamma33P]-ATP after 12 mins by scintillation counting.
Experiment [7] deals with T4, Glycogen synthase kinase-3 alpha. Described as §4. The source holds these as a separate data set.
For experiment [8], the target named is T3, Cyclin-dependent kinase 5. The experiment is described as §3. The source holds these as a separate data set.

T1 sequence (P49841 whole entry): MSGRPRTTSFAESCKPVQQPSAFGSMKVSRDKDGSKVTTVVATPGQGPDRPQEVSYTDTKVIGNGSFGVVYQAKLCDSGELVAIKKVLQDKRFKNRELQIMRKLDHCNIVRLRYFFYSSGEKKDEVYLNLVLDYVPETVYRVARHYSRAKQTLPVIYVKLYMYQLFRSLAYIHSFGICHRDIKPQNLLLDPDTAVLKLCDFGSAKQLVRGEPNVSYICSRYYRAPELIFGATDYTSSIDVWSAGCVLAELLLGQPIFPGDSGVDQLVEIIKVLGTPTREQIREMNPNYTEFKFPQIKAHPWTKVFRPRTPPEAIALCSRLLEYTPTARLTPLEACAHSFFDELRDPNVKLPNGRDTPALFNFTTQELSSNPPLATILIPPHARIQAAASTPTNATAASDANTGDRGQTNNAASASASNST
T2 sequence (P06493 whole entry): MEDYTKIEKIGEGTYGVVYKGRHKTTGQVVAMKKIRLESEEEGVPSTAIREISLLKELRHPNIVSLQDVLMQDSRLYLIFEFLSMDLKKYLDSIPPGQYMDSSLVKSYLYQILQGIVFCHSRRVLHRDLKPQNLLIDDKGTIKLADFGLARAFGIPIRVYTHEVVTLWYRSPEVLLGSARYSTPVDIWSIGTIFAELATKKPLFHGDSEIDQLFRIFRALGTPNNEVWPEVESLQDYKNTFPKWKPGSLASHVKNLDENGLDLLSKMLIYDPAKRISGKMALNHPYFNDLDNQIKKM
T4 sequence (P49840 whole entry): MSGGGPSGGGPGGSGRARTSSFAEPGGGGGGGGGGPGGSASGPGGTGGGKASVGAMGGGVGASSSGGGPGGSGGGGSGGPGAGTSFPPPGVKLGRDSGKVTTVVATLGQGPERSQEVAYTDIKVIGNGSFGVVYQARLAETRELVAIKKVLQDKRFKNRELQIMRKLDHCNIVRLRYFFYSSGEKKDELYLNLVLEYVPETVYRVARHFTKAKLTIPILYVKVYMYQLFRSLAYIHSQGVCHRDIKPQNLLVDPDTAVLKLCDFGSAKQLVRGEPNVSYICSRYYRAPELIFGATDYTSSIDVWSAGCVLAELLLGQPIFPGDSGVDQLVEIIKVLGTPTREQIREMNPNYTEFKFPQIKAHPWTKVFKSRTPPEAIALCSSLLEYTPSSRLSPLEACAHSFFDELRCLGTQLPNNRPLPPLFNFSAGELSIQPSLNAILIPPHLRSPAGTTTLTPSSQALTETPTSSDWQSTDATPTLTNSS
T3 sequence (Q00535 whole entry): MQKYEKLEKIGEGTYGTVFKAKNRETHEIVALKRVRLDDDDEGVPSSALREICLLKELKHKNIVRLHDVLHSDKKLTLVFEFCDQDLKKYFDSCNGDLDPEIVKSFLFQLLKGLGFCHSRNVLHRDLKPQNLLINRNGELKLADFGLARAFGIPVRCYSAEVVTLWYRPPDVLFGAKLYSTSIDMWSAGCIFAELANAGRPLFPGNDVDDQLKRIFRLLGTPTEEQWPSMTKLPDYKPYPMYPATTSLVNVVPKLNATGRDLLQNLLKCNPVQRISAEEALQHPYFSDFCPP

For the molecule `C/C(=C/CC[C@@H](C)C=C1OC(=O)C(C)C1=O)CCCc1coc(Cc2ccoc2)c1` (some centres not stated) [Ircinin 2], the IC50 in experiment [1] and in experiment [2] was 2.34 µM in each case.
With `C/C(=C\C=C\C(C)CC/C=C(\C)C[C@H]1OC(=O)C(C)C1=O)CCCc1ccoc1` (some centres not stated) [PALINURIN], the IC50 in experiment [3] is < 100 µM; in experiment [4] it was < 25.1 µM; in experiment [1], 1.91 µM; in experiment [5] it was < 100 µM; in experiment [6], 1.62 µM; in experiment [2] it was 1.91 µM. Moreover, the figures for the IC50 in experiment [7] and in experiment [8] were 1.62 µM and < 25.1 µM, respectively.
On to `CCCCCCCC(=O)OC[C@H](O)[C@H]1OC(=O)C(O)C1=O` (some centres not stated), for which the IC50 in experiment [1] and in experiment [2] was > 50 µM each time.

As a reminder, the IC50 is the concentration needed to halve the response being measured.
